Consider two molecules from patent US20140051875A1, “CRYSTALLINE FORM OF MAXACALCITOL” (FORMOSA LABORATORIES INC., priority 2012, published 2014).

Like-named read-outs stand apart in the source and are kept apart here.

Data set [1] can be described thus: Storage stability of maxacalcitol hydrate under an inert gas atmosphere. It is filed as physicochemical. As to conditions: under an inert gas atmosphere at 25° C. From the text: In a preferred embodiment, the maxacalcitol hydrate is stored in an amber vial.
The conditions of data set [2]: cited from earlier work.

Take `C=C1/C(=C\C=C2/CCC[C@]3(C)[C@@H]([C@H](C)OCCC(C)(C)O)CC[C@@H]23)C[C@@H](O)C[C@@H]1O` [maxacalcitol hydrate]: the “stability to storage: no degradation for (time)” value in data set [1] is “at least 32 days”.

As for `C=C1/C(=C\C=C2/CCC[C@]3(C)[C@@H]([C@H](C)OCCC(C)(C)O)CC[C@@H]23)C[C@@H](O)C[C@@H]1O` [maxacalcitol, (+)-(5Z,7E,20S)-20-(3-Hydroxy-3-methylbutoxy)-9,10-secopregna-5,7,10(19)-triene-1α,3β-diol], in data set [2] (amber vial under inert gas environment at 25° C.), the “stability: decomposed after storage (time)” value is reported as 4 weeks. The figures for the “stability: stable for (storage time)” value in data set [2] (amber vial under inert gas environment at −20° C.) and in data set [2] (amber vial under inert gas environment at −80° C.) were 6 months and 36 months, respectively. In data set [2] (at 25° C., according to the JP interview form), the decomposition on storage result is “considerable degree of decomposition”.
